pKd: −log10 of the molar value.

We go through 1 molecule from publication PMC12775422 (NPJ Biofilms and Microbiomes, 2025).

The target of this experiment is T1, ferredoxin PA1551 (Pseudomonas aeruginosa, UniProt Q9I3G6).
T1 sequence (Q9I3G6 1-471): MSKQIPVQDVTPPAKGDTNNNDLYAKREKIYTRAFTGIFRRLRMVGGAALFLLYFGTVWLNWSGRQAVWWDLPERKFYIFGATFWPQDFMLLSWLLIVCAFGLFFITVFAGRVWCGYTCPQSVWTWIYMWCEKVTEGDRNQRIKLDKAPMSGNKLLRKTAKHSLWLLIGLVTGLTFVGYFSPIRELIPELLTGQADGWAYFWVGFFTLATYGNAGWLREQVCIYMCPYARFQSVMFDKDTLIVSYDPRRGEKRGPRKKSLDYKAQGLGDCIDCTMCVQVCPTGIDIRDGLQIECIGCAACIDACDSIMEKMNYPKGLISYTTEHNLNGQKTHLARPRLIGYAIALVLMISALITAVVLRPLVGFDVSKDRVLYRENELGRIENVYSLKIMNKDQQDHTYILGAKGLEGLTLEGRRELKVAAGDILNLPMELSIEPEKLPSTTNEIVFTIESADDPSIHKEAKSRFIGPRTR
The experiment is described as follows: microscale thermophoresis. Format: binding.

Usually pKd stands for −log10 of the Kd, conventionally taken in molar units. `CCCCCCC(=O)NCc1c(O)c(=O)cc(C)n1C` [10d, 2-(heptanamido)methyl 3-hydroxy-1,6-dimethylpyridin-4(1H)-one] showed a pKd of 7.24.
